# In patent US9073931B2, “Liver X receptor modulators” (Vitae Pharmaceuticals, Inc., priority 2012, dated 2015):
# Like-named read-outs stand apart in the source and are kept apart here.
# Experiments:
# LBD of LXRβ [1] = molecular target: T1, LBD of LXRβ (Homo sapiens (Human), UniProt P55055); experiment: cell-based
# LXR β LBD protein = LXR β LBD protein (Homo sapiens (Human), UniProt P55055); experiment: LXR β radioligand binding assay (SPA, [3H]T0901317 competition); conditions: competition with 15 nM [3H]T0901317, LXRβ LBD
# LXR β LBD protein, sequence (P55055 222-460): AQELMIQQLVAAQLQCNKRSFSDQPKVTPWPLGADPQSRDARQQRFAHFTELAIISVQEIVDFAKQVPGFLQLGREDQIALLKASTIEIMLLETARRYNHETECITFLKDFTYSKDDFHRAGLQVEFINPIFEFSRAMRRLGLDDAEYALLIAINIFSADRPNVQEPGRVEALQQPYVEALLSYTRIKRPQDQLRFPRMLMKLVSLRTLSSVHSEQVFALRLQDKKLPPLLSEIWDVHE
# LBD of LXRβ [2] = molecular target: T1, LBD of LXRβ
# T1 sequence (P55055 222-460): as above
SMILES,EC50 (LBD of LXRβ [1]) [nM],Ki (LXR β LBD protein) [nM],EC50 (LBD of LXRβ [2]) [nM]
"COc1nc(N2CCn3c(nc4cc(CO)c(S(C)(=O)=O)cc43)[C@H]2C(C)C)ncc1C(F)(F)F [Compound E18, (R)-(1-isopropyl-2-(4-methoxy-5-(trifluoromethyl)pyrimidin-2-yl)-7-(methylsulfonyl)-1,2,3,4-tetrahydrobenzo[4,5]imidazo[1,2-a]pyrazin-8-yl)methanol]",24,8,
"CC(C)[C@@H]1c2cc3ccc(S(C)(=O)=O)cc3n2CCN1c1ncc(CO)c(C(F)(F)F)n1 [Compound E25a, (R)-(2-(1-isopropyl-7-(methylsulfonyl)-3,4-dihydropyrazino[1,2-a]indol-2(1H)-yl)-4-(trifluoromethyl)pyrimidin-5-yl)methanol]",,6,83
"CC(=O)c1cnc(N2CCn3c(cc4ccc(S(C)(=O)=O)cc43)[C@H]2C(C)C)nc1C(F)(F)F [Compound E22a, (R)-1-(2-(1-isopropyl-7-(methylsulfonyl)-3,4-dihydropyrazino[1,2-a]indol-2(1H)-yl)-4-(trifluoromethyl)pyrimidin-5-yl)ethanone]",,12,107
"COC(=O)c1cnc(N2CCn3c(nc4cc(CO)c(S(C)(=O)=O)cc43)[C@H]2C(C)C)nc1C(F)(F)F [Compound E30, (R)-methyl 2-(8-(hydroxymethyl)-1-isopropyl-7-(methylsulfonyl)-3,4-dihydrobenzo[4,5]imidazo[1,2-a]pyrazin-2(1H)-yl)-4-(trifluoromethyl)pyrimidine-5-carboxylate]",17,10,
"CC(C)C1c2nc3ccc(S(C)(=O)=O)cc3n2CCN1c1ncc(C(C)(C)O)c(C(F)(F)F)n1 (racemic) [Compound E2, 2-(2-(1-isopropyl-7-(methylsulfonyl)-3,4-dihydrobenzo[4,5]imidazo[1,2-a]pyrazin-2(1H)-yl)-4-(trifluoromethyl)pyrimidin-5-yl)propan-2-ol]",377,176,
"CC(=O)c1cnc(N2CCn3c(cc4ccc(S(C)(=O)=O)cc43)[C@@H]2C(C)C)nc1C(F)(F)F [Compound E22b, (S)-1-(2-(1-isopropyl-7-(methylsulfonyl)-3,4-dihydropyrazino[1,2-a]indol-2(1H)-yl)-4-(trifluoromethyl)pyrimidin-5-yl)ethanone]",,> 2500,11500
"CC(O)c1cnc(N2CCn3c(cc4ccc(S(C)(=O)=O)cc43)C2C(C)C)nc1C(F)(F)F (single isomer, unassigned) [Compound E24d, 1-(2-(1-isopropyl-7-(methylsulfonyl)-3,4-dihydropyrazino[1,2-a]indol-2(1H)-yl)-4-(trifluoromethyl)pyrimidin-5-yl)ethanol]",,> 2500,> 20000
"CC(O)c1cnc(N2CCn3c(cc4ccc(S(C)(=O)=O)cc43)C2C(C)C)nc1C(F)(F)F (single isomer, unassigned) [Compound E24b, 1-(2-(1-isopropyl-7-(methylsulfonyl)-3,4-dihydropyrazino[1,2-a]indol-2(1H)-yl)-4-(trifluoromethyl)pyrimidin-5-yl)ethanol]",,20,150
"CC(O)c1cnc(N2CCn3c(cc4ccc(S(C)(=O)=O)cc43)C2C(C)C)nc1C(F)(F)F (single isomer, unassigned) [Compound E24a, 1-(2-(1-isopropyl-7-(methylsulfonyl)-3,4-dihydropyrazino[1,2-a]indol-2(1H)-yl)-4-(trifluoromethyl)pyrimidin-5-yl)ethanol]",,7,134
"CC(C)C1c2cc3cc(CO)c(S(C)(=O)=O)cc3n2CCN1c1ncc(C(C)(C)O)c(C(F)(F)F)n1 (single isomer, unassigned) [Compound E27a, 2-(2-(8-(hydroxymethyl)-1-isopropyl-7-(methylsulfonyl)-3,4-dihydropyrazino[1,2-a]indol-2(1H)-yl)-4-(trifluoromethyl)pyrimidin-5-yl)propan-2-ol]",,2,10
"CCOC(=O)c1cnc(N2CCn3c(cc4cc(CO)c(S(C)(=O)=O)cc43)C2C(C)C)nc1C(F)(F)F (racemic) [Compound E28, (±)-Ethyl 2-(8-(hydroxymethyl)-1-isopropyl-7-(methylsulfonyl)-3,4-dihydropyrazino[1,2-a]indol-2(1H)-yl)-4-(trifluoromethyl)pyrimidine-5-carboxylate]",72,5,
"CC(C)[C@@H]1c2nc3cc(CO)c(S(C)(=O)=O)cc3n2CCN1c1ncc(CO)c(C2CC2)n1 (single isomer, unassigned) [Compound E20a]",> 20000,110,
"CC(C)[C@@H]1c2nc3cc(CO)c(S(C)(=O)=O)cc3n2CCN1c1ncc(C(C)(C)O)c(C(F)(F)F)n1 (single isomer, unassigned) [Compound E7a]",23,14,
"CC(C)[C@@H]1c2nc3cc(CO)c(S(C)(=O)=O)cc3n2CCN1c1ncc(C(=O)N(C)C)c(C(F)(F)F)n1 (single isomer, unassigned) [Compound E17a]",> 20000,220,
"CC(C)[C@H]1c2cc3ccc(S(C)(=O)=O)cc3n2CCN1c1ncc(CO)c(C(F)(F)F)n1 [Compound E25b, (S)-(2-(1-isopropyl-7-(methylsulfonyl)-3,4-dihydropyrazino[1,2-a]indol-2(1H)-yl)-4-(trifluoromethyl)pyrimidin-5-yl)methanol]",,> 2500,10800
"CC(C)[C@H]1c2nc3cc(CO)c(S(C)(=O)=O)cc3n2CCN1c1ncc(CO)c(C2CC2)n1 (single isomer, unassigned) [Compound E20b]",> 20000,> 2500,
"CCCC(O)c1cnc(N2CCn3c(nc4cc(CO)c(S(C)(=O)=O)cc43)[C@H]2C(C)C)nc1C(F)(F)F (single isomer, unassigned) [Compound E11a]",68,14,
"CC(O)c1cnc(N2CCn3c(cc4ccc(S(C)(=O)=O)cc43)C2C(C)C)nc1C(F)(F)F (single isomer, unassigned) [Compound E24c, 1-(2-(1-isopropyl-7-(methylsulfonyl)-3,4-dihydropyrazino[1,2-a]indol-2(1H)-yl)-4-(trifluoromethyl)pyrimidin-5-yl)ethanol]",,1690,18200
"CC(C)C1c2nc3ccc(S(C)(=O)=O)cc3n2CCN1c1ncc(CO)c(C(F)(F)F)n1 (racemic) [Compound E4, (2-(1-isopropyl-7-(methylsulfonyl)-3,4-dihydrobenzo[4,5]imidazo[1,2-a]pyrazin-2(1H)-yl)-4-(trifluoromethyl)pyrimidin-5-yl)methanol]",293,137,

# The next lines start with results.
EC50 (LBD of LXRβ [1]) [nM],Ki (LXR β LBD protein) [nM],SMILES,EC50 (LBD of LXRβ [2]) [nM]
10,10,"Cc1cnc(N2CCn3c(nc4cc(CO)c(S(C)(=O)=O)cc43)[C@H]2C(C)C)nc1C(F)(F)F [Compound E21, (R)-(1-isopropyl-2-(5-methyl-4-(trifluoromethyl)pyrimidin-2-yl)-7-(methylsulfonyl)-1,2,3,4-tetrahydrobenzo[4,5]imidazo[1,2-a]pyrazin-8-yl)methanol]",
,21,"CC(C)[C@@H]1c2cc3ccc(S(C)(=O)=O)cc3n2CCN1c1ncc(C(C)(C)O)c(C(F)(F)F)n1 [Compound E23a, (R)-2-(2-(1-isopropyl-7-(methylsulfonyl)-3,4-dihydropyrazino[1,2-a]indol-2(1H)-yl)-4-(trifluoromethyl)pyrimidin-5-yl)propan-2-ol]",306
> 20000,> 2500,"CC(C)[C@H]1c2nc3cc(CO)c(S(C)(=O)=O)cc3n2CCN1c1ncc(C(N)=O)c(C(F)(F)F)n1 (single isomer, unassigned) [Compound E15b]",
350,191,"CC(=O)c1cnc(N2CCn3c(nc4ccc(S(C)(=O)=O)cc43)C2C(C)C)nc1C(F)(F)F (racemic) [Compound E1, 1-(2-(1-isopropyl-7-(methylsulfonyl)-3,4-dihydrobenzo[4,5]imidazo[1,2-a]pyrazin-2(1H)-yl)-4-(trifluoromethyl)pyrimidin-5-yl)ethanone]",
103,23,"CCCC(O)c1cnc(N2CCn3c(nc4cc(CO)c(S(C)(=O)=O)cc43)[C@H]2C(C)C)nc1C(F)(F)F (single isomer, unassigned) [Compound E11b]",
,2440,"CC(C)[C@H]1c2cc3ccc(S(C)(=O)=O)cc3n2CCN1c1ncc(C(C)(C)O)c(C(F)(F)F)n1 [Compound E23b, (S)-2-(2-(1-isopropyl-7-(methylsulfonyl)-3,4-dihydropyrazino[1,2-a]indol-2(1H)-yl)-4-(trifluoromethyl)pyrimidin-5-yl)propan-2-ol]",1340
2180,> 2500,"CC(C)[C@H]1c2nc3cc(CO)c(S(C)(=O)=O)cc3n2CCN1c1ncc(C(C)(C)O)c(C(F)(F)F)n1 (single isomer, unassigned) [Compound E7b]",
50,6,"CCOC(=O)c1cnc(N2CCn3c(nc4cc(CO)c(S(C)(=O)=O)cc43)[C@H]2C(C)C)nc1C(F)(F)F [Compound E12, (R)-ethyl 2-(8-(hydroxymethyl)-1-isopropyl-7-(methylsulfonyl)-3,4-dihydrobenzo[4,5]imidazo[1,2-a]pyrazin-2(1H)-yl)-4-(trifluoromethyl)pyrimidine-5-carboxylate]",
16,7,"CC(=O)c1cnc(N2CCn3c(cc4cc(CO)c(S(C)(=O)=O)cc43)C2C(C)C)nc1C(F)(F)F (racemic) [Compound E26, (±)-1-(2-(8-(hydroxymethyl)-1-isopropyl-7-(methylsulfonyl)-3,4-dihydropyrazino[1,2-a]indol-2(1H)-yl)-4-(trifluoromethyl)pyrimidin-5-yl)ethanone]",
4900,> 2500,"CC(C)[C@H]1c2nc3cc(CO)c(S(C)(=O)=O)cc3n2CCN1c1ncc(C(=O)N(C)C)c(C(F)(F)F)n1 (single isomer, unassigned) [Compound E17b]",
> 20000,240,"CC(C)[C@@H]1c2nc3cc(CO)c(S(C)(=O)=O)cc3n2CCN1c1ncc(C(N)=O)c(C(F)(F)F)n1 (single isomer, unassigned) [Compound E15a]",
